Each structure is given as a SMILES string. The source made the active and inactive calls. How the calls were made is not given here.

The target of this assay is Influenza A virus M2 proton channel (A/TW/4845/1999 H1N1). Nature of the assay: M2 proton channel binding, NMR based, influenza A virus H1N1 strain (AID 1549). The conditions noted are these: NMR binding screen, M2 protein.
With `Cc1nc(SCC#N)c2c(C)c(C)sc2n1`, the Kd was > 4 mM (inactive). Then `NC(=O)Cn1nnc(-c2ccc(C(F)(F)F)cc2)n1`, with > 4 mM (inactive); and `O=C(O)c1ccc(NCc2cccnc2)cc1`, with > 4 mM (inactive); and `COc1ccc(C(=O)/C=C2\NC(=S)NC2=O)cc1`, with > 4 mM (inactive).

`Fc1ccc(-c2n[nH]c(=S)n2CC2CCCO2)cc1` (stereo not drawn): the Kd is > 4 mM (inactive). On to `COc1cc(N)ccc1NC(=O)c1cccs1`, for which the Kd is > 4 mM (inactive). Take `OCC1CCCC1O` (stereo not drawn): the Kd is > 4 mM (inactive). Regarding `Cc1n[nH]c(C)c1CN`, the Kd was > 4 mM (inactive).

As for `CCN1C(=O)c2cccc3c(S(N)(=O)=O)ccc1c23`, the Kd is > 4 mM (inactive). In the case of `COc1ccc2c(c1)O[C@H]1c3ccc(OC)cc3OC[C@@H]21`, the Kd was > 4 mM (inactive).

Take `CCOc1ccc(C)cc1S(=O)(=O)n1ccnc1`: the Kd was > 4 mM (inactive).

Turning to `COc1cc2nc(N3CCNCC3)nc(N)c2cc1OC`, the Kd was > 4 mM (inactive). In the case of `CC(C)(C)C(=O)Nc1ncc(C(F)(F)F)cc1Cl` it was > 4 mM (inactive). As to `Cn1c(=O)n(CC(=O)N2CCOCC2)c2ccccc21`, the Kd is > 4 mM (inactive). Take `CC1SC(=NC(=O)c2ccncc2)NC1=O` (stereo not drawn): the Kd is > 4 mM (inactive). On to `NC1=NCc2ccccc21`, for which the Kd is > 4 mM (inactive).

In the case of `CC(=O)O[C@@H]1CC2C(C)(C)C(=O)[C@@H]3O[C@@H]3[C@]2(C)C2CC[C@]3(C)C(=CC(=O)O[C@H]3c3ccoc3)[C@@]21C` (stereo partly drawn), the Kd is > 4 mM (inactive). With `Cn1nnc2c(N3CCC(C(N)=O)CC3)ncnc21`, the Kd is > 4 mM (inactive).

With `O=C(CSc1nnc2ccccn12)N1CCOCC1`, the Kd was > 4 mM (inactive). In the case of `C=CCCCCCCCCCCCC(O)CC(O)COC(C)=O` (stereo not drawn) (tested in a mixture with another compound) it was > 4 mM (inactive). With `CC(=O)Nc1cccc(NC(=O)c2ccco2)c1`, the Kd was > 4 mM (inactive). As for `CC(=O)c1c(C)n(O)c2ccc3nonc3c12`, the Kd was > 4 mM (inactive).

Take `O=C1C=CC2=C3c4cc(O)c(O)cc4CC3(O)COC2=C1O` (stereo not drawn): the Kd was > 4 mM (inactive). Regarding `Cn1nc(C(=O)NC2CCCCC2)c2ccccc2c1=O`, the Kd was > 4 mM (inactive). Regarding `COc1ccc(C(=O)CC(=O)O)c2c1C=CC(C)(C)O2`, the Kd is > 4 mM (inactive). Regarding `NC(=S)NC1CCS(=O)(=O)C1` (stereo not drawn), the Kd is > 4 mM (inactive).

In the case of `OCc1ccc2ncccc2c1`, the Kd is > 4 mM (inactive). Consider `Nc1nc(-c2ccccc2)ns1`, for which the Kd was > 4 mM (inactive). Turning to `COc1ccc(-c2oc3c(CC=C(C)C)c(O[C@@H]4O[C@H](CO)[C@@H](O)[C@H](O)[C@H]4O)cc(O)c3c(=O)c2O[C@@H]2O[C@@H](C)[C@H](O)[C@@H](O)[C@H]2O)cc1`, the Kd was > 4 mM (inactive). `NC(=O)Cn1nc2c3c(cccc3c1=O)-c1ccccc1-2`: the Kd is > 4 mM (inactive). Regarding `O=C(CSc1ncn[nH]1)c1ccccc1`, the Kd was > 4 mM (inactive). For the compound `COc1c(CC=C(C)C)c2c(c3oc(=O)c(-c4ccc(O)cc4)c(O)c13)C=CC(C)(C)O2`, the Kd was > 4 mM (inactive). In the case of `COCCn1c(N)nc2c1c(=O)[nH]c(=O)n2C` it was > 4 mM (inactive).

As for `O=C(NCc1ccco1)c1ccc(=O)[nH]c1`, the Kd was > 4 mM (inactive). Regarding `Nc1ccc(CN2CCS(=O)(=O)CC2)cc1`, the Kd was > 4 mM (inactive).

Regarding `COc1c2c(cc3cc[n+](C)cc13)OCO2`, the Kd is > 4 mM (inactive). Turning to `O=C(O)c1ccccc1C(=O)Nc1ccccc1`, the Kd is > 4 mM (inactive). As to `Cc1cc(N)n(-c2ccccc2)n1`, the Kd was > 4 mM (inactive). In the case of `CC(C)=CCc1c2c(c3occ(-c4ccc(O)c(O)c4)c(=O)c3c1O)C=CC(C)(C)O2`, the Kd was > 4 mM (inactive). `COC(=O)CCC(C)[C@H]1CCC2C3C(C[C@H](O)[C@@]21C)[C@@]1(C)CC[C@@H](O)C[C@H]1C[C@H]3O` (stereo partly drawn): the Kd is > 4 mM (inactive). Regarding `CC(=O)Oc1ccc(N2C(=O)C3C4C=CC(O4)C3C2=O)cc1` (stereo not drawn), the Kd is > 4 mM (inactive). In the case of `c1ccc(-c2nc3ccccc3nc2-c2ccccn2)nc1` it was > 4 mM (inactive); in that of `CNc1nc(SC)nc(N2CCOCC2)n1`, > 4 mM (inactive). Consider `CCc1ccc(/C=N/n2cnnc2)cc1`, for which the Kd is > 4 mM (inactive). Consider `C=CCc1ccc(OC(=O)c2ccccc2)c(OC)c1`, for which the Kd was > 4 mM (inactive). As to `O=S(=O)(Nc1cccnc1Cl)c1ccccc1`, the Kd is > 4 mM (inactive).

For `CC1(O)CC2C=CC1C2` (stereo not drawn), the Kd was > 4 mM (inactive). For `O=C(O)C1CN2CCC1CC2` (stereo not drawn), the Kd is > 4 mM (inactive). Turning to `CC1(C)CC2(C)N(N)C(=O)CN2C(=S)N1` (stereo not drawn), the Kd was > 4 mM (inactive). As for `O=C(CN1C(=O)c2cccc3cccc(c23)C1=O)NO`, the Kd is > 4 mM (inactive). In the case of `CC(=O)Nc1ccc(S(=O)(=O)N(C)C)cc1` it was > 4 mM (inactive); in that of `Cc1cc(C)cc(C(=O)n2cnnc2N)c1`, > 4 mM (inactive); in that of `Cc1cc(C(=O)NCc2cccnc2)no1`, > 4 mM (inactive). With `CSc1ncnc2nc[nH]c12`, the Kd was > 4 mM (inactive). For `O=C(NN1C(=O)CSC1=S)c1ccccc1`, the Kd was > 4 mM (inactive). In the case of `O=S(=O)(N1CCCCC1)n1nnc2ccccc21` it was > 4 mM (inactive). On to `CN(C)S(=O)(=O)N1CCc2ccccc21`, for which the Kd was > 4 mM (inactive).

On to `COc1cc(C(=S)N2CCOCC2)ccc1O`, for which the Kd was > 4 mM (inactive). On to `CCN1CCC2(CC1)CC1CC3C=CC1(CN2C(C)=O)O3` (stereo not drawn), for which the Kd is > 4 mM (inactive).

With `Cc1nnc(SCc2ccccc2)[nH]c1=O`, the Kd is > 4 mM (inactive). Regarding `CNC(=O)Cn1c(=O)n(C)c2ccccc21`, the Kd was > 4 mM (inactive).

`CC(=O)Nc1sc(C)c(C)c1C(N)=O`: the Kd was > 4 mM (inactive). As for `NC(=O)Cn1cnc2ccccc21`, the Kd was > 4 mM (inactive). `CN(C)S(=O)(=O)c1ccc(N2CCOCC2)nc1`: the Kd is > 4 mM (inactive). As to `Nc1nc(=S)n2c(n1)oc1ccccc12`, the Kd is > 4 mM (inactive). Take `Cn1c(SCC(N)=O)nnc1-c1c[nH]c2ccccc12`: the Kd is > 4 mM (inactive). As for `Cc1cc(=O)c2c(O)cc(O)c(C)c2o1`, the Kd is > 4 mM (inactive). In the case of `Nc1nc(-c2cccnc2)nn1C(=O)Cc1ccccc1` it was > 4 mM (inactive); in that of `COc1ccc(-c2coc3cc(O)ccc3c2=O)c(OC)c1`, > 4 mM (inactive); in that of `CNS(=O)(=O)c1cc(OC)ccc1OC`, > 4 mM (inactive). As to `O=C(O)c1ccc2[nH]c3c(c2c1)CSCC3`, the Kd is > 4 mM (inactive). Turning to `COc1c(OC)c2occc2c2oc(=O)ccc12`, the Kd was > 4 mM (inactive).

In the case of `CCCCn1c(=O)cc(O)c2ccccc21`, the Kd is > 4 mM (inactive). Take `Cc1occc1C(=O)NCc1ccncc1`: the Kd is > 4 mM (inactive). For `Cn1cc(C(=O)N/N=C/c2ccccc2)ccc1=O`, the Kd was > 4 mM (inactive).

For `Fc1cccc(F)c1CN1CCN(c2ncccn2)CC1`, the Kd is > 4 mM (inactive).

On to `O=C(O)C1CN(Cc2ccccc2)CCO1` (stereo not drawn), for which the Kd is > 4 mM (inactive).

Take `NC(=O)CNC(=O)c1ccccc1`: the Kd is > 4 mM (inactive). Consider `S=c1[nH]c2cccnc2[nH]1`, for which the Kd was > 4 mM (inactive).

`CS(C)=C1C(=O)NC(=O)N(c2ccccc2)C1=O`: the Kd was > 4 mM (inactive).

Consider `O=C1CCC(C(=O)NCc2ccc(Cl)cc2)N1` (stereo not drawn), for which the Kd was > 4 mM (inactive).

For the compound `CN1CCc2c(sc(N)c2C#N)C1`, the Kd is > 4 mM (inactive). On to `CS(=O)(=O)Nc1cc2c3c(c1)CCN3C(=O)CC2`, for which the Kd was > 4 mM (inactive).

As to `CN(C)C(=S)Nc1ccc([N+](=O)[O-])cc1`, the Kd was > 4 mM (inactive). Then `Nc1cccc(-c2cnco2)c1`, with > 4 mM (inactive); and `OC[C@@H]1CCCN2CCCC[C@H]12`, with > 4 mM (inactive); and `NC(=O)C1CCN(C(=S)Nc2ccccc2)CC1`, with > 4 mM (inactive). Regarding `CC(=O)NCCc1cc2ccc(C)c(C)c2[nH]c1=O`, the Kd is > 4 mM (inactive). Then `C[n+]1ccc(C(=O)[O-])cc1`, with > 4 mM (inactive). For `Cc1cccc(N2C(=O)CC(=O)NC2=O)c1`, the Kd was > 4 mM (inactive). For the compound `CN1C(=O)c2ccc(C(=O)NC3CCCCC3)cc2C1=O`, the Kd was > 4 mM (inactive). For `CCOC(=O)c1cc(C)[nH]n1`, the Kd is > 4 mM (inactive). Consider `COC(=O)C(O)[C@@H]1C2(C)C(=O)[C@@H](CC3=C4CC(=O)O[C@@H](c5ccoc5)[C@]4(C)CCC32)[C@H](OC(C)=O)C1(C)C` (stereo partly drawn), for which the Kd was > 4 mM (inactive). For `N#Cc1cn(CC(=O)N2CCCC2)c2ccccc12`, the Kd is > 4 mM (inactive).

`Cc1oc(-c2ccccc2)nc1CC(=O)O`: the Kd is > 4 mM (inactive). On to `CCCn1cnn2c(=O)cc(C)nc12`, for which the Kd is > 4 mM (inactive). Regarding `CN(C)/C=N/S(=O)(=O)c1ccccc1`, the Kd is > 4 mM (inactive).

Take `O=C(Nc1ccc2c(c1)CCC2)c1cnccn1`: the Kd was > 4 mM (inactive). As to `CCCc1ncc(C(O)c2cccc3ccccc23)n1C` (stereo not drawn), the Kd is > 4 mM (inactive). Take `NCc1ccc(-c2csnn2)cc1`: the Kd was > 4 mM (inactive). Then `Nc1ncnc2nc(SCCN3CCCCC3)[nH]c12`, with > 4 mM (inactive). In the case of `CNC(=O)Nc1ccc(C(=O)NC)cc1` it was > 4 mM (inactive); in that of `CN1CCN(CC(=O)NC2CCCCC2)CC1`, > 4 mM (inactive).

The term Kd denotes the concentration at which binding is half-saturated.
